From article PMC6534241 (Drug Delivery, 2019)

Tests used:
[1] = Solubility of drugs in oils/excipients; format: physicochemical; conditions: shake flask, 25 °C, 48 h, HPLC, n = 3; Figure S1
[2] = ref Hu et al., 2012; cited from earlier work

CC(=O)O[C@@]12CO[C@@H]1C[C@H](O)[C@@]1(C)C(=O)[C@H](O)C3=C(C)[C@@H](OC(=O)[C@H](O)[C@@H](NC(=O)OC(C)(C)C)c4ccccc4)C[C@@](O)([C@@H](OC(=O)c4ccccc4)[C@H]21)C3(C)C [DTX, Docetaxel]
Solubility among the oils employed (ranking) [1]: highest solubility of 131.62 ± 17.68 in Capryol 90
oral bioavailability of DTX [2]: ~5%
